In US20200121684A1, “MODULATORS OF BTK PROTEOLYSIS AND METHODS OF USE” (Yale University, priority 2018, published 2020):
Counter-ions that a name gives are not always drawn.

Legend:
HER3 = target: T1, HER3 (Homo sapiens, UniProt P21860); experiment: HER3 (ERBB3) degradation, immunoblot; type: cell-based; conditions: Table 5
T1 construct: endogenous in cells

BTK = target: T2, BTK (Homo sapiens, UniProt Q06187); experiment: BTK degradation in NAMALWA cells, immunoblot; type: cell-based; conditions: NAMALWA cells
T2 construct: host or cells: NAMALWA

C481S BTK = C481S BTK (Homo sapiens, UniProt Q06187, C481S); experiment: In vitro kinase inhibition, recombinant BTK, 10-point dose response, 10 μM ATP
C481S BTK, sequence (Q06187 whole entry C481S): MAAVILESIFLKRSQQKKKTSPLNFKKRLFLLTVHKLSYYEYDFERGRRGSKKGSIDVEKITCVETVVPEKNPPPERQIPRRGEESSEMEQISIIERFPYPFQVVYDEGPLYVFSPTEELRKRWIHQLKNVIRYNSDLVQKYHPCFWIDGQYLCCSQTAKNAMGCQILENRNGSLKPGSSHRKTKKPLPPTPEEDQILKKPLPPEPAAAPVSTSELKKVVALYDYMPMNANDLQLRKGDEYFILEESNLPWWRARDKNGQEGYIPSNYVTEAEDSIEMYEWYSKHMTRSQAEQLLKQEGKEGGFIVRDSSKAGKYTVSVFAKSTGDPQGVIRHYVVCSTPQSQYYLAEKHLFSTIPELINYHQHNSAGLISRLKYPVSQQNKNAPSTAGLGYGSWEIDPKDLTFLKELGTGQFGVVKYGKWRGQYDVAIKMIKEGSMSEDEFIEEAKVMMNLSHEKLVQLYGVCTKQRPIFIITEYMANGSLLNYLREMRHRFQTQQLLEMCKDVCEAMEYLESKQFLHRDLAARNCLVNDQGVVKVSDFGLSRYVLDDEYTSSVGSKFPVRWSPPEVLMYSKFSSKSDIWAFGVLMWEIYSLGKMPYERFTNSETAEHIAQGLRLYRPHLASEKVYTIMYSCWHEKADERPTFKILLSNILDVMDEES

T1 sequence (P21860 20-1342): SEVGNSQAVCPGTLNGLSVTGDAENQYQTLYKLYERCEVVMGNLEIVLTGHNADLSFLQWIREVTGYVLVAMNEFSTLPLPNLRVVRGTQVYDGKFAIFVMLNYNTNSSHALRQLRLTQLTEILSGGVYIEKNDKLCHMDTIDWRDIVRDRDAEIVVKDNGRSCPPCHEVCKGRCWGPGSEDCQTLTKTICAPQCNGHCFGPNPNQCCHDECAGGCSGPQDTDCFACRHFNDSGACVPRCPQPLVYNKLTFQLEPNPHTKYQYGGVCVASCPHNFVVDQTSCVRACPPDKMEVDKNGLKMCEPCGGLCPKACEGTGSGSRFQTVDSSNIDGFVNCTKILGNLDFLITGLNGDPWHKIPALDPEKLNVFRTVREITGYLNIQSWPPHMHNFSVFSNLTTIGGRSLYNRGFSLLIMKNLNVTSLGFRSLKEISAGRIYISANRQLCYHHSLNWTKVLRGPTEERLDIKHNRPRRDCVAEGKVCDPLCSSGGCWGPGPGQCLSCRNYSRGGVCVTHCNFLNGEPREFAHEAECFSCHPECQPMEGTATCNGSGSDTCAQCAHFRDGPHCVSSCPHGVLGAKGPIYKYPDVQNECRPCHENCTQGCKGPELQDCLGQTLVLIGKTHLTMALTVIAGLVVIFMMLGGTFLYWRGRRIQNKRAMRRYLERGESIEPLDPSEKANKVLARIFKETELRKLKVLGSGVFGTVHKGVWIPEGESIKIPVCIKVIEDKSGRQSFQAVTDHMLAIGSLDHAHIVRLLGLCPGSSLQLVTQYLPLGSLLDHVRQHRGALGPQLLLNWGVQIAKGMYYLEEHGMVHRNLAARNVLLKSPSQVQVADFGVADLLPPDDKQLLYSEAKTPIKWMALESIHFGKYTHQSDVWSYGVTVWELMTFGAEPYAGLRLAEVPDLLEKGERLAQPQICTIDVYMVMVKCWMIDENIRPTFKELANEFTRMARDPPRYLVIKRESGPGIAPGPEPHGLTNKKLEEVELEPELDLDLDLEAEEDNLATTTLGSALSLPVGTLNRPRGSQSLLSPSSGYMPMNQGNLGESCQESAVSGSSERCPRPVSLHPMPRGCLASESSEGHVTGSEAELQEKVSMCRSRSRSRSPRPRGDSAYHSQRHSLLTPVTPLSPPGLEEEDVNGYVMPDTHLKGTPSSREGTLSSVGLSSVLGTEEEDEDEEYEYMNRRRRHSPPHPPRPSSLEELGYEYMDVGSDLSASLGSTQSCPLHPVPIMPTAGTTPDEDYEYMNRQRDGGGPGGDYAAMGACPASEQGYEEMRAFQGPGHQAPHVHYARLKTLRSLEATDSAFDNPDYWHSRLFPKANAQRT
T2 sequence (Q06187 whole entry): as the sequence (Q06187 whole entry C481S) above, with S481C counted along it

## Nc1ncnc2c1c(-c1ccc(Oc3ccccc3)cc1)nn2C1CCN(CCCCCCOCCOCC(=O)Nc2cccc3c2C(=O)N(C2CCC(=O)NC2=O)C3=O)CC1 (stereo not shown) [Compound 104, 2-(2-(6-(4-(4-amino-3-(4-phenoxyphenyl)-1H-pyrazolo[3,4-d]pyrimidin-1-yl)piperidin-1-yl)hexyloxy)ethoxy)-N-(2-(2,6-dioxopiperidin-3-yl)-1,3-dioxoisoindolin-4-yl)acetamide]
HER3
  HER3 Degradation: No
BTK
  BTK degradation at 1.0 μM: nearly complete degradation of BTK

## Nc1ncnc2c1c(-c1ccc(Oc3ccccc3)cc1)nn2C1CCN(CCCCOCCCCOCC(=O)Nc2cccc3c2C(=O)N(C2CCC(=O)NC2=O)C3=O)CC1 (stereo not shown) [Compound 106, 2-[4-[4-[4-[4-amino-3-(4-phenoxyphenyl)pyrazolo[3,4-d]pyrimidin-1-yl]-1-piperidyl]butoxy]butoxy]-N-[2-(2,6-dioxo-3-piperidyl)-1,3-dioxo-isoindolin-4-yl]acetamide]
HER3
  HER3 Degradation: No
BTK
  BTK degradation at 1.0 μM: nearly complete degradation of BTK

## (2S,4R)-1-((S)-25-(4-(4-amino-3-(4-phenoxyphenyl)-1H-pyrazolo[3,4-d]pyrimidin-1-yl)piperidin-1-yl)-2,2-dimethyl-5-oxo-7,10,13,16,19-pentaoxa-4-azapentacosanecarbonyl)-4-hydroxy-N-(4-(4-methylthiazol-5-yl)benzyl)pyrrolidine-2-carboxamide [Compound 118]
HER3
  HER3 Degradation: No
BTK; Table 5
  DC50: 231 nM

## Nc1ncnc2c1c(-c1ccc(Oc3ccccc3)cc1)nn2C1CCNCC1 [compound 1, 3-(4-phenoxyphenyl)-1-(piperidin-4-yl)-1H-pyrazolo[3,4-d]pyrimidin-4-amine hydrochloride, reference compound]
C481S BTK
  inhibition potency against C481S mutant BTK relative to wild-type: retained inhibition potency
